Data from US5800838A, “Composition that inhibits or destroys at least one unicellular living organism containing fluorine F- and Lithium li+” (priority 1987, dated 1998).
Like-named read-outs stand apart in the source and are kept apart here.

Legend:
Chlamydia trachomatis = assay: MIC on Chlamydia trachomatis strains; type: cell-based; details: listed test strain, read-out: MIC of benzalkonium chloride
Method: The test was performed on 12 strains of Chlamydia trachomatis originating from hospital sources, in particular from cases of urethritis. All the trials were performed in duplicate, and the results compared with those for a listed control strain.
The MIC corresponds to the concentration of benzalkonium chloride at and above which the average number of colonies in Petri dishes containing the active substance is less than one tenth of the average number of colonies in Petri dishes without active substance.

Trichomonas vaginalis = assay: Number of strains inhibited / MIC, same methodology as example 4; type: cell-based; details: for MIC: Trichomonas vaginalis
Method: In the first trial, the sample of bactericidal substance was incorporated directly in the specific culture edium of the microorganism. A concentration series of the bactericidal substance was prepared in the geometric ratio of 2, from 400 μg/ml to 1.56 μg/ml. The cell concentration used in the seeding of the Petri dishes was […]. A 24-hour incubation was performed at 37° C. and then, for each wild-type strain tested, the concentration of primary principle destroying all the microorganisms (see method of Professor F. CATALAN et al., Institut A. FOURNIER, PARIS) was determined. The trail was performed on 32 wild-type strains of Gardnerella vaginalis originating from hospital sources and with benzalkonium chloride and then nonoxinol 9 as active principles, and with sodium fluoride NaF at a concentration of 1 mg/l and then lithium fluoride LiF at a concentration of 1 mg/l as activating principles.
The same methodology as in example 4 was used on 15 strains of Trichomonas vaginalis.

DUCREY's bacillus = assay: MIC with respect to DUCREY's bacillus; type: cell-based, DUCREY's Haemophilus; details: read-out: MIC of the primary active principle
Method: (§1) The methodology employed is that described by Professor F. CATALAN, P. SEDNAOUI, A. MILOVANOVIC et al., Institut A. FOURNIER, PARIS.
The trials were performed on 8 wild-type strains of DUCREY's Haemophilus. The following results were recorded with respect to these strains: […]

Candida albicans = assay: MIC on hospital strains of Candida albicans; type: cell-based; details: read-out: MIC of the primary active principle
Method: as §1
With the same methodology, trials were performed on hospital strains of Candida albicans: […]

Haemophilus influenzae = assay: MIC on hospital strains of pyogenic microorganisms; type: cell-based; details: read-out: MIC of the primary active principle
Text: as §1
(§2) With the same methodology, the following results were observed on hospital strains of pyogenic microorganisms, namely […] streptococcus, Proteus vulgaris, Haemophilus influenzae: […]

Proteus vulgaris = assay: MIC on hospital strains of pyogenic microorganisms; type: cell-based; details: read-out: MIC of the primary active principle
Text: as §1, §2

[1] = test system: β-Haemolytic streptococcus; assay: MIC on hospital strains of pyogenic microorganisms; type: cell-based; details: read-out: MIC of the primary active principle
Text: as §1, §2

[2] = test system: Escherichia coli CNCM 54 127; assay: MIC, French standard NF T 72-150, AFNOR strain; type: cell-based; details: in the presence of LiF at 1 mg/l
Method: (§3) French standard NF T 72-150, March 1981, was followed by the trials carried out. The trials were performed on the strains defined by the AFNOR standard.
(§4) The results obtained on the strains defined by the AFNOR standard for benzalkonium chloride alone and for benzalkonium chloride with the addition of 1 mg/l of sodium fluoride were already given in unpublished European Patent Application 86/402,716.4, and have been recorded again.

[3] = test system: Mycobacterium smegmatis CNCM 7 326; assay: MIC, French standard NF T 72-150, AFNOR strain; type: cell-based; details: in the presence of LiF at 1 mg/l
Method: as §3, §4

[4] = test system: Pseudomonas aeruginosa CNCM A 22; assay: MIC, French standard NF T 72-150, AFNOR strain; type: cell-based; details: in the presence of LiF at 1 mg/l
Method: as §3, §4

[5] = test system: Staphylococcus aureus Oxford strain CNCM 53 154; assay: MIC, French standard NF T 72-150, AFNOR strain; type: cell-based; details: in the presence of LiF at 1 mg/l
Method: as §3, §4

[6] = test system: Streptococcus faecalis CNCM 5 855; assay: MIC, French standard NF T 72-150, AFNOR strain; type: cell-based; details: in the presence of LiF at 1 mg/l
Method: as §3, §4

Pseudomonas aeruginosa = assay: MIC on 200 wild-type strains of Pseudomonas aeruginosa (Examples 19 and 20); type: cell-based; details: Pseudomonas aeruginosa
Method: With the same methodology as above, the MIC values of benzalkonium chloride alone, in the presence of the KATHON CG (registered trademark) preservative (1 mg/l), and then in the presence of KATHON CG (registered trademark) (1 mg/l) and lithium fluoride (1 mg/l), were determined. 200 wild-type strains of Pseudomonas aeruginosa were tested.
The same trial as in Example 19 was performed, but with nonoxinol 9 as the primary active principle: 200 wild-type strains of Pseudomonas aeruginosa were also tested.

spermatozoa = details: in the initial 1 millilitre, cited from earlier work
[7] = test system: Pseudomonas aeruginosa CNCM A 22; details: cited from earlier work
[8] = test system: Escherichia coli CNCM 54 127; details: cited from earlier work
[9] = test system: Staphylococcus aureus Oxford strain CNCM 53 154; details: cited from earlier work
[10] = test system: Streptococcus faecalis CNCM 5 855; details: cited from earlier work
[11] = test system: Mycobacterium smegmatis CNCM 7 326; details: cited from earlier work
[12] = in the presence of LiF at 1 mg/l and of KATHON CG preservative at 0.4 mg/l
[13] = in the presence of NaF at 1 mg/l

CCCCCCCCCCCCCC[N+](C)(C)Cc1ccccc1.[Cl-] [benzalkonium chloride, myristyldimethylbenzylammonium chloride]
MIC (Chlamydia trachomatis; 1 mg/ml added (lithium fluoride)): 13 µg/mL | MIC (Chlamydia trachomatis; alone): 18 µg/mL | MIC (Trichomonas vaginalis; alone): 25 µg/mL | MIC (Trichomonas vaginalis; in the presence of LiF): 6.25 µg/mL | number of strains inhibited out of the 15 tested (Trichomonas vaginalis; benzalkonium chloride 1.56 mg/l, LiF 1 mg/l where added): 1 | number of strains inhibited out of the 15 tested (Trichomonas vaginalis; benzalkonium chloride 3.125 mg/l, LiF 1 mg/l where added): 3 | number of strains inhibited out of the 15 tested (Trichomonas vaginalis; benzalkonium chloride 6.25 mg/l, LiF 1 mg/l where added): 9 | number of strains inhibited out of the 15 tested (Trichomonas vaginalis; benzalkonium chloride 12.5 mg/l): 13 | number of strains inhibited out of the 15 tested (Trichomonas vaginalis; benzalkonium chloride 25 mg/l): 15 | MIC (DUCREY's bacillus; in the presence of LiF (1 mg/l)): 65 µg/mL | MIC (DUCREY's bacillus; in the presence of NaF (1 mg/l)): 85 µg/mL | MIC (DUCREY's bacillus): 100 µg/mL | MIC (Candida albicans; alone): 50 µg/mL | MIC (Candida albicans; in the presence of LiF at 0.96 mg/l and of KATHON CG preservative at 0.234/mgl): 2 µg/mL | MIC (Candida albicans; in the presence of LiF at 0.96 mg/l): 135 µg/mL | MIC (Haemophilus influenzae; alone): 200 µg/mL | MIC (Haemophilus influenzae; [12]): 150 µg/mL | MIC (Proteus vulgaris; alone): 25 µg/mL | MIC (Proteus vulgaris; [12]): 18.5 µg/mL | MIC ([1]; alone): 50 µg/mL | MIC [1, 12]: 25 µg/mL | MIC of benzalkonium chloride [2]: 2 µg/mL | MIC of benzalkonium chloride [3]: 22 µg/mL | MIC of benzalkonium chloride [4]: 15 µg/mL | MIC of benzalkonium chloride [5]: 1.1 µg/mL | MIC of benzalkonium chloride [6]: 2.8 µg/mL | MIC (Pseudomonas aeruginosa; + KATHON CG (1 mg/l) + LiF (1 mg/l), strain Tic R βLac^+): 16 µg/mL | MIC (Pseudomonas aeruginosa; + KATHON CG (1 mg/l) + LiF (1 mg/l), strain Tic R βLac^+ OXA): 16 µg/mL | MIC (Pseudomonas aeruginosa; + KATHON CG (1 mg/l) + LiF (1 mg/l), strain Tic R βLac^+ PSE): 32 µg/mL | MIC (Pseudomonas aeruginosa; + KATHON CG (1 mg/l) + LiF (1 mg/l), strain Tic R βLac^+ TEM): 32 µg/mL | MIC (Pseudomonas aeruginosa; + KATHON CG (1 mg/l) + LiF (1 mg/l), strain Tic R βLac^+ cephalosporinase): 32 µg/mL | MIC (Pseudomonas aeruginosa; + KATHON CG (1 mg/l) + LiF (1 mg/l), strain Tic S βLac^-): 16 µg/mL | MIC (Pseudomonas aeruginosa; + KATHON CG (1 mg/l), strain Tic R βLac^+ OXA, read-out: MIC): 32 µg/mL | MIC (Pseudomonas aeruginosa; + KATHON CG (1 mg/l), strain Tic R βLac^+ PSE, read-out: MIC): 64 µg/mL | MIC (Pseudomonas aeruginosa; + KATHON CG (1 mg/l), strain Tic R βLac^+ TEM, read-out: MIC): 32 µg/mL | MIC (Pseudomonas aeruginosa; + KATHON CG (1 mg/l), strain Tic R βLac^+ cephalosporinase, read-out: MIC): 128 µg/mL | MIC (Pseudomonas aeruginosa; + KATHON CG (1 mg/l), strain Tic R βLac^+, read-out: MIC): 32 µg/mL | MIC (Pseudomonas aeruginosa; + KATHON CG (1 mg/l), strain Tic S βLac^-, read-out: MIC): 16 µg/mL | MIC (Pseudomonas aeruginosa; alone, strain Tic R βLac^+): 64 µg/mL | MIC (Pseudomonas aeruginosa; alone, strain Tic R βLac^+ OXA, read-out: MIC): 64 µg/mL | MIC (Pseudomonas aeruginosa; alone, strain Tic R βLac^+ PSE, read-out: MIC): 64 µg/mL | MIC (Pseudomonas aeruginosa; alone, strain Tic R βLac^+ TEM, read-out: MIC): 32 µg/mL | MIC (Pseudomonas aeruginosa; alone, strain Tic R βLac^+ cephalosporinase, read-out: MIC): 128 µg/mL | MIC (Pseudomonas aeruginosa; alone, strain Tic S βLac^-, read-out: MIC): 32 µg/mL | MIC of benzalkonium chloride (spermatozoa; alone): 0.006% | MIC of benzalkonium chloride (spermatozoa; with 1 ml solution containing 0.0001% F^- anions): 0.002% | MIC of benzalkonium chloride ([7]; alone): 31.25 µg/mL | MIC of benzalkonium chloride [7, 13]: 18 µg/mL | MIC of benzalkonium chloride ([8]; alone): 6.57 µg/mL | MIC of benzalkonium chloride [8, 13]: 3 µg/mL | MIC of benzalkonium chloride ([9]; alone): 1.56 µg/mL | MIC of benzalkonium chloride [9, 13]: 1.1 µg/mL | MIC of benzalkonium chloride ([10]; alone): 4 µg/mL | MIC of benzalkonium chloride [10, 13]: 3.6 µg/mL | MIC of benzalkonium chloride ([11]; alone): 30 µg/mL | MIC of benzalkonium chloride [11, 13]: 26 µg/mL
